Measured values as given in ChEMBL document CHEMBL3244141, “Synthesis and analgesic activity of some long-acting piperidinospiro derivatives of methadone” (1978).

Tests used:
Rattus norvegicus [1] = organism: Rattus norvegicus; test: animal or person; type: functional; conditions: Sprague-Dawley, Tail, po, 24 h
Rattus norvegicus [2] = test: Analgesic activity in po dosed Sprague-Dawley rat assessed as inhibition of warm-water tail withdrawal reflex by measuring dose required to produce withdrawal latency >4 seconds measured every hour of 24 hrs relative to methadone; type: functional

| SMILES | ED50 (Rattus norvegicus [1]) | Ratio (Rattus norvegicus [2]) |
| --- | --- | --- |
| CCC(=O)C(CCN1CCC2(CCCc3ccccc32)CC1)(c1ccccc1)c1ccccc1.O=C(O)C(=O)O | 0.07 mg/kg | 212 |
| CCC(OC(C)=O)C(CCN1CCC2(CCCc3ccccc32)CC1)(c1ccccc1)c1ccccc1.O=S(=O)(O)O (stereo unspecified) | 0.14 mg/kg | 106 |
| CCC(O)C(CCN1CCC2(CCCc3ccccc32)CC1)(c1ccccc1)c1ccccc1 (racemic) | 0.14 mg/kg | 106 |
